Measurements: patent US9046527B2, “Mutated SUMO isoforms and uses thereof” (Université De Montréal, priority 2009, dated 2015)

T1: PML (Homo sapiens, UniProt P29590)
T1 construct: tryptic peptides from NTA-purified His-SUMO3 proteins of HEK293 cells treated or not with As2O3; endogenous in cells; host or cells: HEK293 cells expressing the His-SUMO3 mutant
T1 sequence (P29590 1-882): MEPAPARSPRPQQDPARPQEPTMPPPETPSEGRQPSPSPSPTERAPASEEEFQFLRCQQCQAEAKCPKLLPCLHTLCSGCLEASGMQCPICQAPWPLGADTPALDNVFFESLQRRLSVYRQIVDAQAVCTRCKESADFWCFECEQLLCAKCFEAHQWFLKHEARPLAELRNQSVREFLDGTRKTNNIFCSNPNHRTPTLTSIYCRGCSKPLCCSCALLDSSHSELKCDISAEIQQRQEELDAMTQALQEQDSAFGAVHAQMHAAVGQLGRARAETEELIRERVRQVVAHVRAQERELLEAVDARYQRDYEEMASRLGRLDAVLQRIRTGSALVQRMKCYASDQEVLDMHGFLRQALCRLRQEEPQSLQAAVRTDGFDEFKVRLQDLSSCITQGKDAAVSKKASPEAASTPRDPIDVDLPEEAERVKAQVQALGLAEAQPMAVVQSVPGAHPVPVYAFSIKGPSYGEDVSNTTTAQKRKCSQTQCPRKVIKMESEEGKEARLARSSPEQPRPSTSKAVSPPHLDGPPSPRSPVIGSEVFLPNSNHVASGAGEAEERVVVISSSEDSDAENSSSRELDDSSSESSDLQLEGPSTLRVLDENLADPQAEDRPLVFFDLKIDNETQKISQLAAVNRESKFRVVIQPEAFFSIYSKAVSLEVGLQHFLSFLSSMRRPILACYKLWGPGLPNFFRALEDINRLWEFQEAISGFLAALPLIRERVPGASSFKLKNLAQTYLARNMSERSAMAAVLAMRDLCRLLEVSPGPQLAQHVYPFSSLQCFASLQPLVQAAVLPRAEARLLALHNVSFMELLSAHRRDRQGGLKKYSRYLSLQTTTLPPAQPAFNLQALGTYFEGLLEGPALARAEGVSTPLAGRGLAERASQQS

B1: His6-SUMO3 Q92R/Q93N: Gln to Arg at position 87 and Gln to Asn at position 88 in endogenous SUMO3, N-terminal His6; SEQ ID NO: 12 (protein, listed as Homo sapiens)
chain: MAHHHHHHGGSMSEEKPKEGVKTENDHINLKVAGQDGSVVQFKIKRHTPLSKLMKAYCERQGLSMRQIRFRFDGQPINETDTPAQLEMEDEDTIDVFRNQTGG
modifications: N-terminal His6

Columns and labels:
[1] = target: T1, PML; assay: LC-MS/MS of tryptic peptides from NTA-purified His-SUMO3 proteins of HEK293 cells treated or not with As2O3; assay type: cell-based
Method: FIG. 21 is a scatter plot of tryptic peptides from NTA-purified His-SUMO3 proteins of HEK293 cells treated or not with As2O3.
(§1) SUMOylated proteins were purified from 10^9 cells of stably expressing His6-SUMO1 mutant; half of cell culture was treated with 1 μM As2O3 during 4 hours. Cells were harvested, washed with PBS and lysed with 15 mL of Buffer A (6 M guanidinium-HCl, 0.1 M NaH2PO4, 0.01 M Tris-HCl, pH 8.0, 10 mM-mercaptoethanol). The lysate was sonicated, centrifuged at 16 000 g for 30 minutes and filtered on 0.45 μm and mixed with 500 μL Ni^2+-NTA agarose beads (Invitrogen) pre-washed with lysis buffer and incubated overnight at room temperature on rotating wheel. The NTA beads were successively washed with the following solutions: buffer A, buffer B (8 M Urea, 0.1 M NaH2PO4, 0.01 M Tris-HCl, pH 6.3, 10 mM-mercaptoethanol), buffer B plus 0.2% Triton X-100, twice with buffer B. His SUMO proteins were eluted from the NTA beads using 200 mM imidazole, 0.15 M Tris-HCl, pH 6.7, 5% Glycerol. An example of the enriched His6-SUMO1 mutant proteins is shown on FIG. 20 following SDS-PAGE separation and gel visualisation using silver staining and anti-His immonublot.
This scatter plot compares the abundance of more than 4500 peptide ions, of which approximately 45 correspond to SUMOylated tryptic peptides (blue circles). […]

[2] = test system: PML-nuclear bodies in HEK293 human cells; assay: Immunofluorescence microscopy: co-localization of PML-Yellow Fluorescence Protein with His6-SUMO to nuclear bodies; assay type: cell-based; settings: HEK293, incubation with 1 μM As2O3
Text: Immunofluorescence microscopy of HEK293 human cells showing co-localization of PML-Yellow Fluorescence Protein with His6 SUMO1 WT (top) and Q92R mutant (bottom) to nuclear bodies. […] DAPI staining (nucleus).
Immunofluorescence microscopy of HEK293 human cells showing co-localization of PML-Yellow Fluorescence Protein with His6-SUMO1 WT, His6-SUMO1 mutant, His6-SUMO2 WT, His6-SUMO2 mutant, His6-SUMO3 WT, and His6-SUMO3 mutant to nuclear bodies, DAPI staining (nucleus).
The functional activity of the wild type and SUMO mutants was also determined from immunofluorescence microscopy by monitoring the recruitment of the SUMOylated promyelocytic leukaemia (PML) substrate to nuclear bodies following treatment of HEK293 cells with As2O3 (FIG. 14). The visualization of all SUMO mutants using this immunofluorescence assay also confirmed the functional activity of all three SUMO isoforms (FIG. 15).

[3] = test system: protein SUMOylation; assay: NTA purification of His6-SUMO1 mutant proteins, silver-stained SDS-PAGE and immunoblot anti-His; assay type: cell-based, human; settings: cells stably expressing His6-SUMO1 mutant, stimulation with As2O3
Method: FIG. 20 illustrates gel electrophoresis separation of His6-SUMO1 mutant proteins following NTA purification. Silver-stained SDS-PAGE and immunoblot anti-His show an enrichment of His6-SUMO1 proteins as indicated from the trail of protein bands at the top of the gel.
as §1

[4] = test system: Ubiquitin-conjugating enzyme E2; assay: In vitro SUMOylation assay; assay type: biochemical; settings: Coomassie or silver stained gel
Method: For in vitro SUMOylation, the reaction mixture comprised 20 μL of reaction buffer (20 mM NH4CO3 pH 9, 20 mM NaCl, 0.5 mM DTT), 1 μg recombinant and purified SUMO proteins, 0.5 μg of substrate E2-25K (Boston Biochem) or RanGAP fragment (Boston Biochem), 0.1 μg SASE1/SAE2 heterodimer (Boston Biochem), 0.5 μg conjugating enzyme hUbC9 (Boston Biochem) with or without Mg-ATP solution (Boston Biochem) at 5 mM. The reaction mixture was incubated at 37° C. for 1 hour and subsequently stopped by adding an equal volume of Laemmli Buffer. The reaction mixture was analysed separated by SDS-PAGE and visualized using Western Blotting (2 μl), coomassie staining (10 μL) or silver staining (5 μL) as shown in FIGS. 7 and 8.
Protein extracts were subjected to electrophoresis through a 4-12% NuPAGE Bis-Tris polyacrylamide gel (Invitrogen, Burlington, ON, Canada) under denaturing conditions. After electrophoresis, proteins were fixed within the polyacrylamide gel by incubating the entire gel in 5% (v/v) acetic acid in a 1:1 (v/v) water:ethanol solution. For silver staining, the gel was first sensitized for 1 minute using an aqueous solution of 0.02% sodium thiosulfate (Na2S2O3) unless otherwise indicated. Staining was performed by incubating the gel in 0.1% (v/v) silver nitrate (AgNO3) in water for 25 minutes at 4° C. Finally, the gel was developed in 3% (w/v) sodium carbonate (Na2CO3, pH: 11.4) containing 0.05% formalin (v/v) in water. The staining was then stopped with a solution of 5% (v/v) acetic acid in water. For Coomassie blue staining, proteins were fixed after gel separation and stained in a one-step procedure by incubating the entire gel in 0.1% (w/v) Coomassie Brilliant Blue R-250 in a 1:8:11 (v/v/v) acetic acid:methanol:water mixture for 1 hour at room temperature (RT). The gel was finally rinsed three times in a 1:4:5 (v/v/v) acetic acid:methanol:water solution at RT to visualize protein bands.

[5] = test system: HA-RanGAP; assay: In vivo SUMOylation assay with transfected HA-RanGAP, immunoblot anti-HA; assay type: cell-based, human
Method: FIG. 9 illustrates immunoblot of in vivo SUMOylation assay using transfected HA-RanGAP as protein substrate. Immunoblots are performed using an antibody that recognized the HA epitope. Immunoblots are presented for His6-SUMO1 (wild type, and mutant Q92R).
SUMO isoform mutants can also be co-transfected in mammalian cells with target protein substrates. For example, RanGAP1, a known SUMOylation target forms a tight complex in association with NUP358 and UBE2I/UBC9. The ubiquitin-conjugating enzyme E2 interacts with UBE2I favoring the conjugation of SUMO1 to RANGAP1, and subsequently stabilizes interactions of SUMOylated RANGAP1 with RANBP2/NUP358. The SUMO1/RANGAP1/UBC9/NUP358 complex associates with nuclear pore complexes (Joseph, J., Tan, S. H., Karpova, T. S., McNally, J. G., and Dasso, M. (2002). SUMO-1 targets RanGAP1 to kinetochores and mitotic spindles. The Journal of cell biology 156, 595-602; Swaminathan, S., Kiendl, F., Korner, R., Lupetti, R., Hengst, L., and Melchior, F. (2004). RanGAP1*SUMO1 is phosphorylated at the onset of mitosis and remains associated with RanBP2 upon NPC disassembly. The Journal of cell biology 164, 965-971). The SUMO isoform mutants are also functional and can be conjugated to RanGAP1 following transfection of these proteins in […] cells, as illustrated in FIG. 9. […]

Molecule	SUMOylated E2 band on stained gel [4]	further results
[AsH3] [As2O3]	–	abundance of PML peptides ([1]; HEK293, NTA-purified His-SUMO3 proteins, upon As2O3 treatment): significant increased in abundance; increase in SUMOylation of K490 bearing PML peptide ([1]; HEK293 His-SUMO3 mutant, As2O3 treated vs not treated): 8 fold; formation of PML-nuclear bodies [2]: Increase formation of PML-nuclear bodies; protein SUMOylation (His6-SUMO1 protein bands) [3]: Enhanced protein SUMOylation
His6-SUMO1 Q94R: recombinant His6-SUMO1 with mutation Q94R	SUMOylated E2 is observed as the highest molecular weight band	–
His6-SUMO1 E93R: recombinant His6-SUMO1 with mutation E93R	SUMOylated E2 is observed as the highest molecular weight band	–
His6-SUMO1 Q92R: Substitution of Gln for Arg at position 92 in endogenous SUMO1 protein, N-terminal His6; SEQ ID NO: 4	SUMOylated E2 is observed as the highest molecular weight band	SUMOylated HA-RanGAP band on immunoblot [5]: SUMOylated HA-RanGAP is observed as the highest molecular weight band
His6-SUMO2 Q88R: Substitution of Gln for Arg at position 88 in endogenous SUMO2 protein, N-terminal His6; SEQ ID NO: 8	SUMOylated E2 is observed as the highest molecular weight band	–
B1	SUMOylated E2 is observed as the highest molecular weight band	–
